The values below come from patent US20240050359A1, “COSMETIC USES OF A HIPPOPHAE RHAMNOIDES CAKE HYDROLYSATE” (BASF Beauty Care Solutions France SAS, priority 2020, published 2024).

Format in all cases: cell-based
Experiment [1] relates to fibroblasts from the papilla of human hair follicles. The experiment can be described thus: ATP production by papilla fibroblasts grown as aggregates. The settings on record: capsaicin 10 μM. The method, then:
(§1) Materials and method: A suspension composed of fibroblasts from the papilla of human hair follicles and basal culture medium, containing 0.05% v/v growth factor cocktail and the presence or absence of the H. rhamnoides hydrolyzate to be tested, was centrifuged for 5 minutes at 200×g to form aggregates. Control conditions were produced by adding 0.05% v/v growth factor cocktail (ethanol EtOH control) and adding capsaicin (10 μm) as a cell sensitizer (capsaicin control) to the basal culture medium. The aggregates were incubated at a temperature of 37° C. under controlled atmosphere (5% CO2 and 95% relative humidity). The aggregates were rinsed in buffered saline solution (PBS) and the cells were separated by incubation in a mixture of proteases (collagenase A, trypsin) with EDTA. A portion of the suspended cells was taken up in PBS for flow cytometry analysis. The cell count and autofluorescence are the two parameters measured. Autofluorescence is a direct parameter easily measured and used as a marker of cell senescence ([…] et al. 1982). The cell count is an indirect parameter of the growth potential of the hair follicle. Another portion of cells was used for analysis of the cell DNA content and ATP production rate. These two parameters were measured according to the suppliers' instructions (CyQuant NF Cell proliferation Assay Kit C35006, Invitrogen and Bioluminescence Assay Kit CLS II Roche 11699695001, Sigma-Aldrich).

The subject of the next experiment is Human follicles. The experiment can be described thus: Ex vivo hair shaft elongation of cultured follicles. The settings on record: capsaicin (10 μm). On the procedure:
Materials and method: Human follicles were cultured ex vivo in complete growth medium containing 0.5 μg/ml insulin, and treated with capsaicin […]. The latter molecule is used as an agent causing slowing of follicle growth. A control condition without capsaicin treatment was produced. Capsaicin-sensitized follicles were treated or not with 0.03% (w/v) H. rhamnoides hydrolyzate. Each culture condition was evaluated on […] cultured in isolation (n=10). The follicles were incubated at 37° C. in the presence of 5% CO2. The culture medium was renewed three times a week for approximately 2 weeks. The elongation of the hair shafts of the cultured follicles was obtained from photographs taken on different days. The hair length was evaluated by image analysis (Image J) and presented in μm as a mean±standard error.

The subject of experiment [2] is fibroblasts from the papilla of human hair follicles. Put plainly: Amount of DNA in papilla fibroblasts grown as aggregates. The settings on record: capsaicin 10 μM. The method, then:
as §1, with “Another portion of cells was used for analysis of the cell DNA content and ATP production rate.” left out

Experiment [3] has the same test system. Put plainly: Flow cytometry of papilla fibroblasts grown as aggregates (number, granularity, autofluorescence). The settings on record: capsaicin 10 μM; Control (EtOH) = 100. On the procedure:
as §1
Background: Flow cytometry measures light scatter and fluorescence of single cells or particles in a stream.

For `COc1cc(CNC(=O)CCCC/C=C/C(C)C)ccc1O` [Capsaicin, capsaicin], the “ATP production % Activity” value in experiment [1] is on record as −76%. The “reduction of the production of ATP relative to the control (ethanol)” value in experiment [1] came to 76%. Moreover, the “ATP production MEAN” value in experiment [1] (EtOH control = 100) amounted to 24. The “hair elongation MEAN (μm)” value is on record as 0 μm in the experiment on Human follicles (Day 0); 806 μm in the experiment on Human follicles (Day 6); 861 μm in the experiment on Human follicles (Day 8); 869 μm with Human follicles (Day 11); 938 μm with Human follicles (Day 13); 936 μm in the experiment with Human follicles (Day 15). Besides, the “amount of DNA % deviation vs control” value in experiment [2] is reported as −77%. Moreover, in experiment [2] (EtOH control = 100), the “amount of DNA MEAN” value came to 23. Moreover, the “Autofluorescence (%)” value in experiment [3] turned out to be 235%. The “Granularity (%)” value in experiment [3] is listed as 217%. Further, in experiment [3], the “Number of cells (%)” value was determined as 28%.
